According to patent US20050106292A1, “High moisture, shelf-stable acidulated food products” (priority 2003, published 2005):

Assay: Contact of acidic solution with human skin
Type: in vivo
Settings: solution with a pH of less than 0.5

## O=S(=O)(O)O [sulfuric acid]
  irritation or injury of the hand put into the solution: an irritation would occur
